Experimental data from patent publication US20120035217A1, “Bis Aromatic Compounds for Use as LTC4 Synthase Inhibitors” (BIOLIPOX AB, priority 2009, published 2012).

Biological target: T1, Recombinant human LTC4 synthase (Homo sapiens, UniProt Q16873)
T1 construct: made in house; host or cells: Pichia pastoris ('Piccia pastoralis' [sic])
T1 sequence (Q16873 1-150): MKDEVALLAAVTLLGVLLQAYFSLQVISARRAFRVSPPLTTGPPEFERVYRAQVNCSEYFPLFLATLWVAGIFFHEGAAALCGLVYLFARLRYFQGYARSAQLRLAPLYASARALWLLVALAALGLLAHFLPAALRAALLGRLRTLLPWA
Assay: Biological in vitro assay: LTC4 synthase conversion of LTA4 to LTC4, HTRF detection
Type: biochemical
Conditions: for % inhibition: total concentration of title compound in the assay 10 μM
Description: In the assay, LTC4 synthase catalyses the reaction where the substrate LTA4 is converted to LTC4. Recombinant human LTC4 synthase is expressed in Piccia pastoralis and the purified enzyme is dissolved in 25 mM tris-buffer pH 7.8 supplemented with 0.1 mM glutathione (GSH) and stored at −80° C. The assay is performed in phosphate buffered saline (PBS) pH 7.4 and 5 mM GSH in 384-well plates.
The following is added chronologically to each well:
1. 48 μL LTC4 synthase in PBS with 5 mM GSH. The total protein concentration in this solution is 0.5 μg/mL. 2. 1 μL inhibitor in DMSO (final concentration 10 μM). 3. Incubation of the plate at room temperature for 10 min. 4. 1 μL LTA4 (final concentration 2.5 μM). 5. Incubation of the plate at room temperature for 5 min. 6. 10 μL of the incubation mixture is analysed using homogenous time resolved fluorescent (HTRF) detection.

| SMILES | IC50 | % inhibition |
| --- | --- | --- |
| CN(c1ccc(Cl)cc1)c1ccc(C(=O)c2ccc(-n3nncc3-c3cccc(Cl)c3)c(C(=O)O)c2)cc1 [Example 3:2, 5-{4-[(4-Chlorophenyl)(methyl)amino]benzoyl}-2-[5-(3-chlorophenyl)-1,2,3-triazol-1-yl]benzoic acid] | 36 nM | 100% |
| CN(c1ccc(Cl)cc1)c1ccc(C(=O)c2ccc(-n3cc(-c4ccccc4)nn3)c(C(=O)O)c2)cc1 [Example 2:1, 5-{4-[(4-Chlorophenyl)(methyl)amino]benzoyl}-2-(4-phenyl-1,2,3-triazol-1-yl)-benzoic acid] | 326 nM | 99% |
| CN(c1ccc(Cl)cc1)c1ccc(C(=O)c2ccc(-c3nccn3-c3ccccc3)c(C(=O)O)c2)nc1 [Example 9, 5-{5-[(4-Chlorophenyl)(methyl)amino]picolinoyl}-2-(1-phenylimidazol-2-yl)benzoic acid] | 217 nM |  |
| CN(c1ccc(Cl)cc1)c1ccc(C(=O)c2ccc(-n3nncc3-c3ccccc3)c(C(=O)O)c2)cc1 [Example 3:1, 5-{4-[(4-Chlorophenyl)(methyl)amino]benzoyl}-2-(5-phenyl-1,2,3-triazol-1-yl)-benzoic acid] | 154 nM | 100% |
| Cc1cc2ncn(-c3ccc(C(=O)c4ccc(N(C)c5ccc(Cl)cc5)cc4)cc3C(=O)O)c2cc1C [Example 1, 5-{4-[(4-Chlorophenyl)(methyl)amino]benzoyl}-2-(5,6-dimethyl-1-benzimidazolyl)-benzoic acid] | 288 nM | 97% |
| CN(c1ccc(Cl)cc1)c1ccc(C(=O)c2ccc(-n3cc(-c4cccc(Cl)c4)nn3)c(C(=O)O)c2)cc1 [Example 2:2, 5-{4-[(4-Chlorophenyl)(methyl)amino]benzoyl}-2-[4-(3-chlorophenyl)-1,2,3-triazol-1-yl]benzoic acid] | 214 nM | 99% |
